Reference: patent publication US6110943A, “N-substituted (thiophen-2-yl)-piperidines and tetrahydropyridines as serotonergic agents” (American Home Products Corporation, priority 1999, dated 2000)

Assays:
[1] = molecular target: T1, 5-HT1A serotonin receptor (Rattus norvegicus, UniProt P19327); test: displacement of [^3 H] 8-OHDPAT (dipropylaminotetralin) from the 5-HT1A serotonin receptor (Hall et al., J. Neurochem. 44, 1685 (1985)); settings: read-out: 5-HT1A Binding (IC50)
T1 construct: following the procedure of Hall et al., J. Neurochem; 44, 1685 (1985); from tissue
T1 sequence (P19327 1-422): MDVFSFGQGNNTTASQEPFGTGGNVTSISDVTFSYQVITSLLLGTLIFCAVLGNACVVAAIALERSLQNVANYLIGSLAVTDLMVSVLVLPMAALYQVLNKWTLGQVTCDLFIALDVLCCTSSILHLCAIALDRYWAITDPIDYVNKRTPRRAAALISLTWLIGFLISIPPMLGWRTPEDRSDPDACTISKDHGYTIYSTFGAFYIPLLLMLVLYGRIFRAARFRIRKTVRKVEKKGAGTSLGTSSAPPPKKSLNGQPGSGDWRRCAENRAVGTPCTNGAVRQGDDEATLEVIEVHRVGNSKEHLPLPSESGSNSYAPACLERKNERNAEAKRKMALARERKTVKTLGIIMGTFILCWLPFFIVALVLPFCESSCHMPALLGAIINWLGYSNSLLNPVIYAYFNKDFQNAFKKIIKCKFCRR
Method: Representative compounds of the present invention were evaluated and determined to have high affinity for the serotonin 5-HT1A receptor by testing the compound's ability to displace [^3 H] 8-OHDPAT (dipropylaminotetralin) from the 5-HT1A serotonin receptor following the procedure of Hall et al., J. Neurochem. 44, 1685 (1985). […] The anxiolytic activity of buspirone is believed to be, at least partially, due to its 5-HT1A receptor affinity (Vander Maclen et al., Eur. J. Pharmacol. 1986,129 (1-2)[…]).

[2] = system: 5-HT1A serotonin receptor subtype; settings: buspirone as standard for anxiolytic activity; cited from earlier work

COc1ccsc1C1(O)CCN(C[C@H](Cc2ccccc2)NC(=O)OC(C)(C)C)CC1 [Example 1, (S)-{1-Benzyl-2-[4-hydroxy-4-(3-methoxy-thiophen-2-yl)-piperidin-1-yl]-ethyl}-carbamic acid tert-butyl ester]
IC50 [1]: 80 nM

O=C1CC2(CCCC2)CC(=O)N1CCCCN1CCN(c2ncccn2)CC1 [buspirone]
5-HT1A receptor affinity (in words) [2]: potent affinity

COc1ccsc1C1CCN(C[C@H](Cc2ccccc2)NC(=O)C2CCCCC2)CC1 [Example 4, Cyclohexanecarboxylic acid {(1S)-1-benzyl-2-[4-(3-methoxy-thiophen-2-yl)-piperidin-1-yl]-ethyl}-amide]
IC50 [1]: 1.1 nM

COc1ccsc1C1=CCN(C[C@H](Cc2ccccc2)NC(=O)OC(C)(C)C)CC1 [Example 2, (S)-{1-Benzyl-2-[4-(3-methoxy-thiophen-2-yl)-3,6-dihydro-2H-pyridin-1-yl]-ethyl}-carbamic acid tert-butyl ester]
IC50 [1]: 1.6 nM

COc1ccsc1C1=CCN(C[C@H](Cc2ccccc2)NC(=O)C2CCCCC2)CC1 [Example 3, (S)-cyclohexanecarboxylic acid {1-benzyl-2-[4-(3-methoxy-thiophen-2-yl)-3,6-dihydro-2H-pyridin-1-yl]-ethyl}-amide]
IC50 [1]: 0.78 nM
